Measured values reported in article PMC10226132, “First-in-Class Selective Inhibitors of the Lysine Acetyltransferase KAT8” (Journal of Medicinal Chemistry, 2023).

What was measured:
AHH-1 cells = experiment: Proliferation of noncancer B lymphocyte AHH-1 cells; format: cell-based, human; conditions: 72 h; for effect on proliferation of AHH-1 cells: 25, 50, 100, 200 μM; for IC50: Homo sapiens, AHH-1, NI = no inhibition at 200 µM
Excerpt: (§1) Human commercially available AML U937, breast cancer MCF7, lung adenocarcinoma NCI-H460, H1299 and A-549, glioblastoma U251, B lymphocyte AHH1 cell lines were maintained in compete 10% foetal bovine serum (FBS,) RPMI 1640 (Euroclone, Milan, IT) medium. Human commercially available colon cancer HCT116 and HT29 lines and cervix adenocarcinoma HeLa cells were maintained in compete 10% FBS Dulbecco’s Modified Eagle Medium (DMEM) high glucose medium (Euroclone). L-Glutamine, FBS, and penicillin streptomycin mixture added to medium were obtained from Euroclone. All cell lines were cultured at 37 °C in a humidified atmosphere of 5% CO2:95% air and were tested for mycoplasma contamination routinely by RT-PCR.
(§2) For analysis of cell proliferation, cells were plated in sextuplicate on 96-well plates in complete media. After 24 h, cells were exposed to different drugs for 72 h. The inhibitory effect of different drugs was assessed by MTT (Sigma, St. Louis, MO, USA) colorimetric assays as previously reported.[67] Aqueous DMSO (0.5% v/v) was used as a control (untreated). The results are reported as “viability of drug-treated cells/viability of untreated cells” × 100 and represent the average ±SD of three independent experiments. IC50 values were using fitted by nonlinear regression using GraphPad Prism 8.0.

U937 cells = experiment: MTT cell proliferation assay, U937; format: cell-based, human; conditions: for antiproliferative activity in U937: 10, 25, 50, 100 μM; for IC50: 72 h treatment, MTT
Excerpt: as §1, §2

H4K16Ac in HT29 cells [1] = experiment: Western blot of H4K16Ac and KAT8 levels in HT29 cells; format: cell-based, human; conditions: increasing concentrations, 24 h
Description: For WB experiments, the cells were lysed in RIPA buffer supplemented with 1× […] protease inhibitor cocktail (Sigma-Aldrich, S8830); 20 μg of total protein was resolved in 13.5% gels by SDS-PAGE. Then, the proteins were transferred to nitrocellulose membranes (Biorad Laboratories). Membranes were blocked for 1 h and incubated overnight with the appropriate primary antibody at 4 °C. After incubation, membranes were washed and incubated with the appropriate secondary antibody (Biorad Laboratories) for 1 h at room temperature. Following primary rabbit monoclonal antibodies H4K16Ac (1:1000, E2B8W, Rabbit mAb#13534, Cell Signalling Technology), KAT8 (1:1000, D5T3R Rabbit mAb #46862 Cell Signalling Technology), GAPDH (1:1000, sc-32233, Santa Cruz Biotechnologies), anti-LC3B (Sigma-Aldrich, L7543), anti-SQSTM1/p62 (Santa Cruz Biotechnology, sc-28,359), and anti-GAPDH (Santa Cruz Biotechnology, sc-32,233). Secondary antibodies: anti-mouse (Bio-Rad Laboratories, 1,706,515) or anti-rabbit (Bio-Rad Laboratories, 1,706,516) IgG-horseradish peroxidase-conjugated antibodies. Detection was performed by ECL Western Blotting Substrate (Biorad Laboratories). Images of blots were acquired through the ChemiDoc Imaging Systems (Biorad Laboratories). The band signals were quantified using ImageJ, and values were normalized to relative controls, depending on the analysis.

[2] = system: normal human lung fibroblasts (NHLF); experiment: Proliferation of normal human lung fibroblasts (NHLF); format: cell-based; conditions: 25, 50, 100, 200 μM, 72 h
Description: as §2

H460 cells = experiment: MTT cell proliferation assay, H460; format: cell-based, human; conditions: 10, 25, 50, 100 μM, 72 h
Excerpt: as §1, §2

[3] = system: human intestinal epithelial cells (InEpC); experiment: Proliferation of human intestinal epithelial cells (InEpC); format: cell-based; conditions: 25, 50, 100, 200 μM, 72 h
Description: as §2

HT29 cells = experiment: Annexin V/PI analysis, HT29; format: cell-based, human; conditions: 50 and 100 μM, 72 h, compared to control
Description: For the analysis of the progression of cells through cell cycle phases and sub-G1 peak identification, 24 h after plating, cells were treated with the different compounds. After 72 h, both floating and adherent cells were collected and fixed with cold 70% ethanol. At least 24 h after fixation, cells were incubated with 0.025 mg/mL Propidium Iodide for 15 min at room temperature and analyzed. For Annexin V analysis, 24 h after plating, cells were treated with 50 and 100 μM of the compounds. In the case of chloroquine experiments, 10 μM chloroquine (Sigma-Aldrich, A9165) was added 30 min before compounds. 72 h after treatment, both floating and adherent cells were collected and stained with an Annexin V-FITC apoptosis detection kit (ENZO #ALX-850-020-KI). Samples were incubated 15 min in the dark at rt, and 10,000 events were then analyzed.

H4K16Ac in HT29 cells [4] = experiment: Immunofluorescence of H4K16Ac in HT29 cells; format: cell-based, human; conditions: 50 μM, 24 h, compared with control
Description: For IF analysis, 1 × 10^5 HT-29 cells were grown on sterile coverslips. After 24 h, cells were exposed to different compounds for 24 h. IF staining for different acetylated lysine residues of histone H3 (H3K27Ac) and H4 (H4K16Ac) were carried out on PFA-fixed cells blocked with 20% goat serum in PBS and incubated overnight at 4 °C with primary rabbit monoclonal antibodies histone H3K27Ac (D5E4, Rabbit mAb#8173) and H4K16Ac (E2B8W, Rabbit mAb#13534, Cell Signalling Technology). Primary antibodies were detected using rabbit anti-IgG secondary antibodies conjugated with Cy3 (Jackson Immunoresearch 711-165-152). DNA was stained using 0.05 μg/mL 4′,6-diamidino-2-phenylindole (DAPI). The samples were acquired using an Olympus AX70 (Olympus America Inc.) microscope. Serial Z stacks of 0.4 μm thickness were acquired, taking care to cover the entire cell volume. For quantification of fluorescence intensity signals, images of untreated or treated cells were analyzed and processed using opensource Cell Profiler 4.1.3 image analysis software (https://cellprofiler.org/) to measure fluorescence-integrated intensity values for antibody binding relating to individual cells as previously reported.[67]

A549 cells = experiment: MTT cell proliferation assay, A549; format: cell-based, human; conditions: for antiproliferative activity in A549: 10, 25, 50, 100 μM; for IC50: 72 h treatment, MTT
Excerpt: as §1, §2

H1299 cells = experiment: MTT cell proliferation assay, H1299; format: cell-based, human; conditions: for antiproliferative activity in H1299: 10, 25, 50, 100 μM, 72 h; for IC50: Homo sapiens, NCI-H1299, 72 h treatment, MTT
Excerpt: as §1, §2

**Q.** For `CC1=NN(c2ccc(C(=O)O)cc2)C(=O)/C1=C\c1ccc[nH]1` [Compound 19, (Z)-4-(4-((1H-Pyrrol-2-yl)methylene)-3-methyl-5-oxo-4,5-dihydro-1H-pyrazol-1-yl)benzoic Acid], which “effect on proliferation of AHH-1 cells” value (AHH-1 cells) is on record?
**A.** did not significantly affect the proliferation

**Q.** And the IC50 (AHH-1 cells)?
**A.** > 200 µM

**Q.** And the “antiproliferative activity in U937” value (U937 cells; 72 h)?
**A.** dose-dependent antiproliferative effects

**Q.** What about the inhibition at 50 µM (U937 cells; Homo sapiens, U-937, 50 μM, 72 h) of the same compound?
**A.** ~70%

**Q.** What about the inhibition at 100 µM (U937 cells; Homo sapiens, U-937, 100 μM, 72 h) of the same compound?
**A.** > 80%

**Q.** What about the IC50 (U937 cells; Homo sapiens, U-937) of the same compound?
**A.** 30.1 ± 1.7 µM

**Q.** What about the “KAT8 expression level (WB)” value (H4K16Ac in HT29 cells [1]) of the same compound?
**A.** no consistent variation in KAT8 levels

**Q.** And the “histone H4K16 acetylation levels (WB)” value (H4K16Ac in HT29 cells [1])?
**A.** induced a decrease in histone H4 acetylation levels

**Q.** What about the “effect on proliferation of NHLF” value [2] of the same compound?
**A.** did not significantly affect the proliferation

**Q.** And the “antiproliferative activity in H460” value (H460 cells)?
**A.** inhibited H460 proliferation

**Q.** What about the “effect on proliferation of InEpC” value [3] of the same compound?
**A.** did not significantly affect the proliferation

**Q.** And the “apoptotic cell population (Annexin V), HT29” value (HT29 cells)?
**A.** only a slight increase in apoptotic cell population

**Q.** And the “reduction in H4K16Ac signal intensity (IF)” value (H4K16Ac in HT29 cells [4])?
**A.** 80%

**Q.** What about the “antiproliferative activity in A549” value (A549 cells; 72 h) of the same compound?
**A.** dose-dependent antiproliferative effects

**Q.** And the IC50 (A549 cells; Homo sapiens, A549)?
**A.** 41 ± 9.8 µM

**Q.** What about the “antiproliferative activity in H1299” value (H1299 cells) of the same compound?
**A.** dose-dependent antiproliferative effects

**Q.** What about the IC50 (H1299 cells) of the same compound?
**A.** 52.1 ± 10.6 µM

**Q.** How did the “effect on proliferation of AHH-1 cells” value (AHH-1 cells) turn out when `O=C(O)c1ccc(N2N=C(c3ccccc3)/C(=C/c3ccc[nH]3)C2=O)cc1` [Compound 34, (Z)-4-(4-((1H-Pyrrol-2-yl)methylene)-5-oxo-3-phenyl-4,5-dihydro-1H-pyrazol-1-yl)benzoic Acid] was run?
**A.** did not significantly affect the proliferation

**Q.** What about the IC50 (AHH-1 cells) of the same compound?
**A.** > 200 µM

**Q.** What about the “antiproliferative activity in U937” value (U937 cells; 72 h) of the same compound?
**A.** dose-dependent antiproliferative effects

**Q.** What about the IC50 (U937 cells; Homo sapiens, U-937) of the same compound?
**A.** 51.7 ± 9.5 µM

**Q.** And the “KAT8 expression level (WB)” value (H4K16Ac in HT29 cells [1])?
**A.** no consistent variation in KAT8 levels

**Q.** What about the “histone H4K16 acetylation levels (WB)” value (H4K16Ac in HT29 cells [1]) of the same compound?
**A.** induced a decrease in histone H4 acetylation levels

**Q.** And the “effect on proliferation of NHLF” value [2]?
**A.** did not significantly affect the proliferation

**Q.** What about the “antiproliferative activity in H460” value (H460 cells) of the same compound?
**A.** essentially inactive

**Q.** And the “effect on proliferation of InEpC” value [3]?
**A.** did not significantly affect the proliferation

**Q.** And the “apoptotic cell population (Annexin V), HT29” value (HT29 cells)?
**A.** only a slight increase in apoptotic cell population

**Q.** What about the “reduction in H4K16Ac signal intensity (IF)” value (H4K16Ac in HT29 cells [4]) of the same compound?
**A.** more than 50%

**Q.** What about the “antiproliferative activity in A549” value (A549 cells; 72 h) of the same compound?
**A.** dose-dependent antiproliferative effects

**Q.** And the inhibition at 50 µM (A549 cells; Homo sapiens, A549, 50 μM, 72 h)?
**A.** ~65%

**Q.** And the inhibition at 100 µM (A549 cells; Homo sapiens, A549, 100 μM, 72 h)?
**A.** ~80%

**Q.** What about the IC50 (A549 cells; Homo sapiens, A549) of the same compound?
**A.** 33 ± 5.7 µM

**Q.** What about the “antiproliferative activity in H1299” value (H1299 cells) of the same compound?
**A.** dose-dependent antiproliferative effects

**Q.** And the IC50 (H1299 cells)?
**A.** 41.6 ± 6.8 µM
